Measurements taken from patent US8153784B2, “Imaging of enzyme activity” (The General Hospital Corporation, priority 2004, dated 2012).
Values joined by “and” are separate entries in the source; they are usually repeats but may differ in a detail not shown here. Identical values can stand only once. “Also recorded” adds a separate entry of the source.

Columns and labels:
[1] = target: T1, HRP (Armoracia rusticana, UniProt P00433); test: HRP effect over T1, well plate with different HRP amounts; type: biochemical, horseradish; settings: for lowest enzyme activity level with detectable decrease in T1 / decrease in T1: 0.5 mM; for T1: C = 0.5 mM
T1 construct: purchased Sigma
T1 sequence (P00433 31-338): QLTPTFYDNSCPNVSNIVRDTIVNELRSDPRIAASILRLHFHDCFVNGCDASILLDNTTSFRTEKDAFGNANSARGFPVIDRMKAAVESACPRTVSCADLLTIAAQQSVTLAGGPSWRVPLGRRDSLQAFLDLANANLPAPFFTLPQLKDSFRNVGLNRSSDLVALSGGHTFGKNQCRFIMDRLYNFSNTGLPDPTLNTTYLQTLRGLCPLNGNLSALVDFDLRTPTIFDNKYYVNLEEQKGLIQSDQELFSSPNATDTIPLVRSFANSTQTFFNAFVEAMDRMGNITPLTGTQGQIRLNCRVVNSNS
Experimental: MR imaging was performed on a 1.5 T GE Excite whole body MR scanner using a 3 inch surface coil. T1-weighted images were obtained using a spin echo sequence with TR=500 ms, TE=11 ms, NEX=4.
To estimate the detection limit of these sensor substrates, a new well plate layout containing a fixed concentration of 1Gd^3+ (0.5 mM, row b1) and 2Gd^3+ (0.5 mM, row b2) supplemented with different HRP amounts (from left to right: 4, 0.4, 0.04, 0.004 U) was imaged (FIG. 10B). The use of 4 U/mL of enzyme yielded a decrease in T1 by 50 and 25% for compounds 1Gd^3+ and 2Gd^3+, respectively. Detectable decrease could be seen at enzyme specific activity levels as low as 0.04 U/mL. In this case the decrease was measured to be 15% for compound 1Gd^3+ and 12% for compound 2Gd^3+.

[2] = target: T2, human MPO embedded in Matrigel (Homo sapiens, UniProt P05164); test: MPO/Matrigel implant mouse model, T1-weighted MR imaging; type: in vivo; settings: for enhancement of MPO implant compared with control implant: right MPO/Matrigel vs left control; for enhancement of MPO implant compared with control implant / relative CNR before wash-out/decrease of the control side: 1.5 T; for maximum relative CNR ratio (CNR(right)/CNR(left)): MPO/Matrigel right vs control left
T2 construct: purchased BioDesign, Inc
T2 sequence (P05164 49-745): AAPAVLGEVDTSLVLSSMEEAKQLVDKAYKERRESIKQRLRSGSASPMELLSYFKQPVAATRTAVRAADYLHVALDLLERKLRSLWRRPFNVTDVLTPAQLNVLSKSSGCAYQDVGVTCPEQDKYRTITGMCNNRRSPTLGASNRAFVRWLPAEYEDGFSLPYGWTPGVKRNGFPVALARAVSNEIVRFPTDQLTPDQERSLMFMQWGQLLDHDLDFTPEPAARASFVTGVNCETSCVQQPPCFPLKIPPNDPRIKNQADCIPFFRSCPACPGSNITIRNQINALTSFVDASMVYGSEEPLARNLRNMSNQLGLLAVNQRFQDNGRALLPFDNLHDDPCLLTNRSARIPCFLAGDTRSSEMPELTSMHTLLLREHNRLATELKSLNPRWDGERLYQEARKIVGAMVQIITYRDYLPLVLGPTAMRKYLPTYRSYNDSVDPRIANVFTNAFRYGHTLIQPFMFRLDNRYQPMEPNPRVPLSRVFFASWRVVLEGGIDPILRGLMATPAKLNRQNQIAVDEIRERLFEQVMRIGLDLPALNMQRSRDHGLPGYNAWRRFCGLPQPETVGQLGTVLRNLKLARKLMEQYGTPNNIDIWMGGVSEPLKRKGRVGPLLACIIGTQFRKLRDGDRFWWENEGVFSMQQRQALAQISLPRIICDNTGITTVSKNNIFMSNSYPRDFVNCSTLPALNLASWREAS
Experimental: To evaluate the monomeric substrates in vivo, we devised a mouse model that harbored 400 μL of Matrigel basement membrane matrix gel mixed 1:1 by volume with a solution containing 15 U of human MPO and glucose oxidase (as a source of hydrogen peroxide) that was injected into the right flank of the mouse. The left flank was injected with the enzyme-free Matrigel mixture. We subsequently performed T1-weighted MR imaging after the intravenous injection of Gd-DTPA-diSer substrate at the dose of […].
The MR imaging experiments were performed on a 1.5 T GE Excite scanner and a 4.7 T Bruker Pharmascan scanner. For all MR imaging experiments, precontrast T2-(TR=2000, TE=100, ETL=8, NEX=4, fast spin echo sequence) and T1-weighted images (TR=500, TE=11, NEX=4, spin echo sequence) with fat saturation were initially performed to locate the gels or area of inflammation. The substrates (0.3 mmol/kg) were subsequently injected via the tail vein of the mouse. The mouse was immediately imaged after the injection of the contrast agent using multiple T1-weighted sequences with fat saturation for at least 3 hours.
Ten-week old C57BL6 male mice were obtained from Jackson Laboratories. A total of 22 mice were used for the study. • 1. MPO/Matrigel imaging experiments: Matrigel™ (Beckton-Dickinson), a […] basement membrane matrix gel was used to immobilize human MPO and glucose oxidase (to supply H2O2 required for detecting MPO oxidative activity, Calbiochem). This was chosen to reflect deposits of human MPO in inflamed tissue in a mouse model. 400 μL of a mixture of Matrigel™ and MEM (Cambrex) was injected slowly into the thighs of each mouse one hour prior to imaging. The right thigh mixture also contained 15 U of MPO and 4 U of glucose oxidase (Calbiochem), while the left thigh mixture contained no enzyme and thus serves as an internal control. A total of 15 mice were used (3 mice each for 5-HT-DOTA(Gd), bis-5-HT-DTPA(Gd), bis-5-HT-DTPA-^111In, bis-tyramide-DTPA(Gd), and DTPA(Gd)). • 2. LPS/Matrigel experiments (n=3): This model was developed to induce endogeneous mouse MPO secretion and activation. 200 μL total volume Matrigel containing 10% heparin was injected slowly into the thighs of the mice 4 days prior to imaging. The right-sided mixture also contained E. coli lipopolysaccharide (LPS) at 10 μg/mL. One mouse was sacrificed for immunohistochemistry. • 3. Myositis experiments (n=4): LPS at 100 μg/mL in PBS was injected into each mouse intramuscularly in the right flank to produce myositis. The mice are imaged 24 hours after injection.
For normalized signal intensity measured on T1-weighted images, mean±standard deviation (SD) values were calculated in regions of interest (ROI). Contrast-to-noise (CNR) ratios were computed for each ROI according to the formula

[3] = target: T3, human myeloperoxidase (MPO) (Homo sapiens, UniProt P05164); settings: in vitro settings; reference (9); cited from earlier work
T3 construct: purchased BioDesign Inc

maximum relative CNR ratio (CNR(right)/CNR(left)) ([2]; mouse, listed as serotonin-DOTA-Gd^3+ complex)	Compound	lowest enzyme activity level with detectable decrease in T1 [1]	decrease in T1 ([1]; 0.04 U/mL of enzyme)	decrease in T1 ([1]; 4 U/mL of enzyme)	T1 ([1]; HRP 0 U)	T1 ([1]; HRP 4 10-1 U)	T1 ([1]; HRP 4 10-2 U)	T1 ([1]; HRP 4 10-3 U)	T1 ([1]; HRP 4 U)	enhancement of MPO implant compared with control implant ([2]; mice, listed as bis-tyramide-DTPA(Gd))	relative CNR increase before significant wash-out of the control side ([2]; mice, 4.7 T)	maximum relative CNR increase ([2]; mice, at 240 minutes (washout from control implant))	maximum relative CNR increase ([2]; mice, in the first 143 minutes)	enhancement of MPO implant compared with control implant ([2]; mice)	relative CNR before wash-out/decrease of the control side ([2]; mouse)	relative CNR before wash-out/decrease of the control side ([2]; mouse, listed as bis-5-HT-DTPA(Gd))	maximum relative CNR ratio (CNR(right)/CNR(left)) ([2]; mouse)	relative CNR ratio ([2]; mouse, at 185 minutes)	increase in the contrast-to-noise ratio, right (MPO-containing) vs left (control) flank ([2]; mouse, i.v. 0.3 mM/Kg, over 3 hours post injection)	time of MPO activation and oligomerization to reach 90% completion [3]
	O=C([O-])CN(CCN(CC(=O)[O-])CC(=O)NCCc1ccc(O)cc1)CCN(CC(=O)[O-])CC(=O)NCCc1ccc(O)cc1.[Gd+3] [1Gd^3+]	0.04 U/mL	15%	50%	316 ms	229 ms	274 ms	321 ms	211 ms	did not result in significantly increased enhancement; also recorded: did not demonstrate significantly increased enhancement										
	O=C([O-])CN(CCN(CC(=O)[O-])CC(=O)NCCc1c[nH]c2ccc(O)cc12)CCN(CC(=O)[O-])CC(=O)NCCc1c[nH]c2ccc(O)cc12.[Gd+3] [2Gd^3+]	0.04 U/mL	12%	25%	339 ms	278 ms	303 ms	331 ms	271 ms		1.8 fold	2.5 times	1.9 times	significantly increased enhancement	1.7-1.8	1.9	1.72 and 2.5	2.0	1.7-2.0 fold	about 15 minutes
1.72	CC(C(=O)NCC(=O)NCCc1c[nH]c2ccc(O)cc12)N1CCN(CC(=O)[O-])CCN(CC(=O)[O-])CCN(CC(=O)[O-])CC1.[Gd+3] (stereo not shown) [5-HT-DOTA(Gd), Glycylmethyl DOTA(Gd) 5-Hydroxytryptamide]													significantly increased enhancement			1.7			about 15 minutes
